The subject of series [1] is CYP1A1. The following applies: for mCherry fluorescence intensity at different concentrations: real-time, TCDD positive control. As to the method: The CYP1A1 fluorescently labelled stem cell line-derived hepatic organoids were treated with the selected hazardous chemicals, tert-butylhydroquinone (tBHQ), 1,2-naphtoquinone (1,2-NQ), and 1,4-naphtoquinone (1,4-NQ) to observe the changes in mCherry fluorescence intensity in real-time.

The subject of series [2] is CYP1A1. The series can be described thus: CYP1A1 mRNA expression level in CYP1A1-mCherry hPSC-derived hepatic organoids. Type of series: cell-based, human.
The mark [3] stands for this setting: hepatic organoids, real-time fluorescence, 24 hours of treatment.

Where two headings read alike, the source gives them in different places.

As to `O=C1C=Cc2ccccc2C1=O` [1,2-NQ, 1,2-Naphtoquinone], the “mCherry fluorescence intensity at different concentrations” value in series [1] (hepatic organoids) is on record as “increased in a concentration-dependent manner”. Still for that read-out and setting: to `O=C1C=CC(=O)c2ccccc21` [1,4-NQ, 1,4-Naphtoquinone] belongs “increased in a concentration-dependent manner”. For the molecule `Cc1ccc2cc3c(ccc4ccccc43)c3c2c1CC3` [3-MC, 3-methylcholanthrene], the “mCherry fluorescence intensity in hepatic organoids” value in series [1] (setting [3]) is listed as “increase”. `Cc1ccccc1N=Nc1ccc(NC(=O)c2ccnn2C)c(C)c1` [CH223191]: the “mCherry fluorescence intensity, treated together with AHR agonists” value in series [1] (hepatic organoids, treated together with TCDD and BaP) is given as “decreased”. Further, in series [1] (hepatic organoids, treated together with tBHQ, 1,2-NQ, 1,4-NQ), the “mCherry fluorescence intensity, treated together with three hazardous chemicals” value is on record as “decreased”. The “CYP1A1 gene expression level, treated together with AHR agonists” value in series [2] (treated together with TCDD and BaP) is recorded as “decreased”. Also, the “CYP1A1 mRNA expression level, treated together with three hazardous chemicals” value in series [2] (treated together with tBHQ, 1,2-NQ, 1,4-NQ) was “decrease”. Consider `COc1cccc2c1C(=O)c1c(O)c3c(c(O)c1C2=O)C[C@@](O)(C(=O)CO)C[C@@H]3O[C@H]1C[C@H](N)[C@H](O)[C@H](C)O1` [DOX, doxorubicin], for which the “mCherry fluorescence intensity in hepatic organoids” value in series [1] is “increase”.

Take `O=Cc1c2c(cc3c1=Nc1ccccc1-3)=Nc1ccccc1-2` [FICZ, 6-formylindolo [3,2-B]carbazole]: in series [1] (setting [3]), the “mCherry fluorescence intensity in hepatic organoids” value is recorded as “increase”. In the case of `Clc1cc2c(cc1Cl)Oc1cc(Cl)c(Cl)cc1O2` [TCDD, 2,3,7,8-tetrachlorodibenzo-p-dioxin], the “mCherry fluorescence intensity, time-lapse imaging” value in series [1] (hepatic organoids, 3-hour intervals up to 72 hours after treatment) is on record as “increased in a time-dependent manner”. The mCherry fluorescence entry in series [1] (hepatic organoids, 24 hours after treatment, imaging device) was “increase”. The “CYP1A1 mRNA expression level” value in series [2] (24 hours after treatment) was “increased”. As to `COc1cccc2c1C(=O)c1c(O)c3c(c(O)c1C2=O)C[C@@](O)(C(C)=O)C[C@@H]3O[C@H]1C[C@H](N)[C@H](O)[C@H](C)O1` [daunorubicin], the “mCherry fluorescence intensity in hepatic organoids” value in series [1] is reported as “increase”. On the same count and under the same terms, for `CC(=O)[C@]1(O)Cc2c(O)c3c(c(O)c2[C@@H](O[C@H]2C[C@H](N)[C@H](O)[C@H](C)O2)C1)C(=O)c1ccccc1C3=O` [idarubicin] the value was “increase”; for `Cc1oncc1C(=O)Nc1ccc(C(F)(F)F)cc1` [leflunomide], “increase”. With `CC(C)(C)c1cc(O)ccc1O` [tBHQ, tert-Butylhydroquinone], in series [1] (hepatic organoids), the “mCherry fluorescence intensity at different concentrations” value is reported as “increased in a concentration-dependent manner”.

Values taken from patent US20250136946A1, “REAL-TIME CHEMICAL SCREENING METHOD USING LIVER ORGANOIDS FLUORESCENTLY LABELED WITH CYTOCHROME P450 1A1 ENZYME” (priority 2023, published 2025).
